According to patent publication US8575116B1, “Polyacetylenic compounds for protecting against pancreatic islet atrophy” (Academia Sinica, priority 2010, dated 2013):

Legend:
db/db mice [1] = test: Blood insulin after a single oral dose in fed diabetic db/db mice; type: in vivo, mouse; conditions: for blood insulin levels compared to vehicle, effect in words: single dose, db/db mice; for Blood insulin level: fed db/db mice
Experimental: After 0.5 h, the levels of postprandial blood sugar and insulin from the mice were monitored for additional 4 h. For continued administration, diabetic db/db males were grouped and tube-fed with vehicle, cytopiloyne (0.5 or 2.5 mgkg^−1 day^−1) or glimepiride (2.5 mg kg^−1 day^−1) for the indicated time, while levels of blood sugar, insulin, and glycosylated HbA1c, and glucose tolerance in these mice were determined. To evaluate the prophylaxis of diabetes, diabetes-free db/db mice at 4 weeks of age were tube-fed with vehicle or cytopiloyne (CP, 0.5 mgkg^−1), once a day, for 4 weeks. Unless indicated otherwise, the mice were fasted for 16 h, then Postprandial blood glucose and insulin in these mice were measured.
Glucose levels in mouse blood samples were measured using an Elite® glucometer (Bayer, Pittsburgh, Pa., USA). Insulin levels in blood samples or islet cell supernatants were determined by ELISA assays (Mercodia, Uppsala, Sweden). The levels of glycosylated HbA1c in mouse blood samples were measured using DCA 2000 analyzer (Bayer, Pittsburgh, Pa., USA).
The same procedure as Table 1 was performed. Blood samples at the indicated time interval (0, 0.5, 1, 2, and 4 h) were collected from the retro-orbital vein of those mice and the insulin levels in each blood sample were determined using ELISA kits. The number of mice used (n) is indicated in parentheses in the first column.

db/db mice [2] = test: Intraperitoneal glucose tolerance test (IPGTT) in db/db mice; type: in vivo, mouse; conditions: 2.5 mgkg^−1 day^−1 for 6 weeks, day 42, db/db mice
Experimental: FIGS. 1A-F show the anti-diabetic effects of cytopiloyne in db/db mice during long-term treatment. (A) Chemical structure of cytopiloyne (2-β-D-glucopyranosyloxy-1-hydroxytrideca-5,7,9,11-tetrayne). (B) Four groups of 6-to-8-week-old diabetic db/db mice were tube-fed with vehicle, cytopiloyne (CP, 0.5 and 2.5 mgkg^−1 day^−1) or glimepiride (GLM, 2.5 mgkg^−1 day^−1) from 0 to 42 days post-treatment. Blood glucose (BG) levels in these mice were measured. (C) Blood insulin levels from the mice of FIG. 1B. (D) IPGTT was performed in the db/db mice of FIG. 1B on day 0, 28 and 42, and blood glucose levels were monitored for 3.5 h. (E) The percentage of glycosylated HbAlc of whole blood from the mice of FIG. 1B on day 0 and 42. (F) Pancreata of 8- and 16-week-old db/db males, which had received the same treatment as FIG. 1B for 2 (images a-h) and 10 (images i-p) weeks, were stained with hematoxylin and eosin (H&E, images a, c, e, g, i, k, m and o) or hematoxylin and anti-insulin (H&I, images b, d, f, h, j, l, n and p). […] Results from 3 independent experiments are expressed as mean±SEM, and P<0.05 was considered to be statistically significant (*). […]
Male db/db mice were administered either vehicle, cytopiloyne at 0.5 and 2.5 mgkg^−1 day^−1 or glimepiride at 2.5 mgkg^−1 day^−1 for the indicated time. […] The levels of blood sugar were monitored from −0.5 to 3 h after glucose administration.

RIN-m5F cells = test: Intracellular calcium (Fura 2-AM) in RIN-m5F cells; type: cell-based, rat; conditions: cytopiloyne 7, 14 and 28 μM, glucose 16.7 mM
Experimental: FIGS. 5A-D show the effects of cytopiloyne on calcium mobilization, DAG generation and PKCa activation. (A) After Fura 2-AM loading, RIN-m5F cells were stimulated with 16.7 mM glucose (HG) and cytopiloyne at 7, 14 and 28 μM. Level of intracellular calcium, as shown by the 340/380 nm ratio, was detected using a fluorescence spectrophotometer. (B) RIN-m5F cells were pulsed with ^3H-myristic acid (5 Cim1^−1) for 16 hours. After washing, the cells were stimulated with glucose, cytopiloyne, PMA and glimepiride. Total lipids were separated on a silica thin layer plate. DAG and cholesterol were visualized with iodine vapor and identified by their standards. (C) RIN-m5F cells were incubated with vehicle (Mock), cytopiloyne (CP, 3, 7 and 14 μM), PMA (1 μM) and 16.7 mM (HG). Membrane or cytosolic proteins were subjected to Western blot with anti-PKCα and anti-Actin antibodies. (D) RIN-m5F cells were incubated with vehicle (Mock), cytopiloyne (CP 7 μM) and PMA (1 μM). […]
RIN-m5F cells were pre-loaded with Fura 2-AM (5 μM) in modified Krebs-Henseleit buffer for 30 min at 25° C. […] Intracellular calcium of the cells was measured using a fluorescence spectrophotometer (CAF 110, Jasco, Tokyo, Japan) at excitation wavelengths of 340 and 380 nm and an emission wavelength of 500 nm. The ratio of fluorescence intensity at 340 nm to that at 380 nm represents the level of intracellular calcium.

[3] = single oral dose 2.5 mg/kg, 0 h
[4] = single oral dose 2.5 mg/kg, 0.5 h
[5] = single oral dose 2.5 mg/kg, 1 h
[6] = single oral dose 2.5 mg/kg, 2 h
[7] = single oral dose 2.5 mg/kg, 4 h

Structure (SMILES)	blood insulin levels compared to vehicle, effect in words (db/db mice [1])	Blood insulin level (db/db mice [1]; [3]) [µg/L]	Blood insulin level (db/db mice [1]; [4]) [µg/L]	Blood insulin level (db/db mice [1]; [5]) [µg/L]	Blood insulin level (db/db mice [1]; [6]) [µg/L]	Blood insulin level (db/db mice [1]; [7]) [µg/L]	Blood insulin level (db/db mice [1]; single oral dose 0.1 mg/kg, 0 h) [µg/L]	Blood insulin level (db/db mice [1]; single oral dose 0.1 mg/kg, 0.5 h) [µg/L]	Blood insulin level (db/db mice [1]; single oral dose 0.1 mg/kg, 1 h) [µg/L]	Blood insulin level (db/db mice [1]; single oral dose 0.1 mg/kg, 2 h) [µg/L]	Blood insulin level (db/db mice [1]; single oral dose 0.1 mg/kg, 4 h) [µg/L]	Blood insulin level (db/db mice [1]; single oral dose 0.5 mg/kg, 0 h) [µg/L]	Blood insulin level (db/db mice [1]; single oral dose 0.5 mg/kg, 0.5 h) [µg/L]	Blood insulin level (db/db mice [1]; single oral dose 0.5 mg/kg, 1 h) [µg/L]	Blood insulin level (db/db mice [1]; single oral dose 0.5 mg/kg, 2 h) [µg/L]	Blood insulin level (db/db mice [1]; single oral dose 0.5 mg/kg, 4 h) [µg/L]	glucose tolerance (IPGTT) (db/db mice [2])	intracellular calcium (340/380 nm ratio) (RIN-m5F cells)
CCC1=C(C)CN(C(=O)NCCc2ccc(S(=O)(=O)NC(=O)N[C@H]3CC[C@H](C)CC3)cc2)C1=O [glimepiride, reference compound]	significantly elevated the blood insulin levels	13.9 ± 1.2	19.3 ± 4.2	26.3 ± 3.3	15.9 ± 1.7	11.8 ± 2.1												
CC#CC#CC#CC#CCCC(CO)O[C@@H]1O[C@H](CO)[C@@H](O)[C@H](O)[C@H]1O (stereo partly drawn) [cytopiloyne, 2-β-D-glucopyranosyloxy-1-hydroxytrideca-5,7,9,11-tetrayne]	significantly elevated the blood insulin levels	12.5 ± 1.2	25.5 ± 1.2	18.9 ± 3.3	17.6 ± 1.7	8.9 ± 2.1	17.2 ± 4.7	21.0 ± 1.3	15.5 ± 0.6	14.1 ± 0.5	9.7 ± 1.3	15.7 ± 1.9	22.6 ± 1.9	16.0 ± 2.4	12.8 ± 0.7	12.2 ± 1.9	improved glucose tolerance in db/db mice to a greater extent than glimepiride	increased intracellular calcium in a dose-dependent manner
